# Test results reported in US20260000496A1, “MATERIALS AND METHODS FOR DRUG-INDUCED GINGIVAL OVERGROWTH” (Optimed Technology, Inc., priority 2019, published 2026).
# What was measured:
# MyD88 = experiment: Western blot of MyD88 in oral keratinocytes; type: cell-based, human; conditions: treated with CsA and LPS to simulate the disease, FIG. 35
# Procedure: (§1) Cell Culture. Normal human oral keratinocytes (NOKSI) and fibroblast (HOF) cells were maintained in Dulbecco […] Eagle's medium (Sigma-Aldrich, St. Louis, MO, USA) supplemented with 10% fetal bovine serum (Atlas Bio-logicals, Fort Collins, CO, USA) and 100 units/mL penicillin and 100 μg/mL streptomycin (LifeTechnologies, Carlsbad, CA, USA). Cells were grown in incubator at 37° C. in a humidified chamber with 5% CO2.
# Drugs treatment in cell culture. The cells were treated alone or with different combination of lipopolysaccharide, cyclosporine, phenytoin, and folic acid. All of them were purchased from Sigma-Aldrich (St. Louis, MO, USA). Each of them were used from 0 μg/ml to 40 μg/ml and the optimum concentration were found 10 μg/ml.
# Western blot analysis. Cells were seeded in 60 mm plates with a density of 5×10^5 cells per plate and washed briefly with Dulbecco's phosphate-buffered saline (Gibco, Waltham, MA, USA). Whole cell lysates were prepared using RIPA lysis buffer containing protease inhibitor cocktail (Sigma-Aldrich). Total protein concentration was determined using the BCA reagent (Pierce, Waltham, MA, USA). 20 μg of total protein were resolved on sodium dodecyl sulfate-polyacrylamide gel electrophoresis and transferred to polyvinylidenedifluoride membrane and immunoblotted. The blots were incubated for 1 h in 1% bovine serum albumin (BSA) (Sigma-Aldrich) to block the non-specific bindings followed by over-night incubation in primary antibodies (MyD88 and pP65 from Cell Signaling Technology, and human LITAF ThermoFisher Sigma) at 4° C. on shaker. Next day, blots were washed for three times (10 min each) in Tris-buffered saline containing 1% Tween20 (TBST) followed by incubation with secondary antibody (Goat anti-rabbit IgG HRP) with 1:10,000 dilution for 1 h. Following washes, bands were visualized using gel documentation Imaging Systems (BioRad). The band intensities were quantified using software ImageJ (NIH, USA) and relative protein levels were normalized by β-actin (Cell Signaling). To perform the western blot of animal tissue samples, the gingival tissues were collected from both BABLB/c and C57BL/6 mice studies. The soft tissues were separated from the mandibular bone and then crunched. The Bradford assay was performed to measure the protein concentration of each sample. After normalization, 20 μg of whole tissue protein lysate were proceeded for western blot analysis.
# [1] = tested on: Collagen type I alpha 1 (Col1a1); experiment: Collagen (Col1a1) expression in Human Oral Fibroblasts, QPCR; type: cell-based; conditions: fibroblasts treated with TGF-β, FIG. 1
# Procedure: as §1
# Human Oral Fibroblasts (HOF) cells were seeded in 60 mm plates with a density of 2.5×10^4/cm^2 and treated with condition (CM) media collected from Oral Keratinocytes containing LPS (10 μg/ml), CSA (10 μg/ml), Phenytoin (10 μg/ml), or Folic acid (10 μg/ml) and incubated for 24 hours. The Collagen type I alpha 1 (Col1a1) gene expression was determined by QPCR. HOF cells were treated with rTGF-β, SB-431542 (SB), rTNF-α, or TNF-α inhibitor (TNF-α inh). Quantitative real-time PCR results showing the expression of Col1a1 in HOF cells after the treatment. (p<0.05).
Substance,MyD88 expression in human oral keratinocytes after disease-simulating treatment (MyD88),collagen expression in fibroblasts [1]
Lipopolysaccharide,robustly induce MyD88 expression,
TGF-β,,induce collagen expression
